Test results taken from patent US20180327367A1, “MACROCYCLIC BROAD SPECTRUM ANTIBIOTICS” (priority 2015, published 2018).
Values after ≈ are worked out from the molar mass of the structure shown. Where two headings read alike, the source gives them in different places.

Legend:
[1] = test system: Methicillin Resistant Staphylococcus aureus strain USA 300, NRS384; assay: Minimum inhibitory concentration, broth micro-dilution (CLSI), S. aureus; assay type: cell-based; settings: Staphylococcus aureus, MRSA / NRS 384 / USA300, 22 h, 35° C., 22 hours
Method in brief: (§1)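 CLSI broth microdilution in cation-adjusted Mueller Hinton Broth with 0.002% Tween-80; inoculum final OD600 0.0005, 22 hours at 35° C. Ten 2-fold dilutions starting at 4 μg/mL (protocol 2) or 0.5 μg/mL (protocol 3).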

[2] = test system: Escherichia coli MC4100 harboring the IMP4213 (E. coli IMP); assay: microbe, parasite or virus in culture; assay type: cell-based; settings: Escherichia coli, 22 h, read-out: MIC (μg/mL) E. coli IMP, E. coli MC4100 IMP4213, increased outer-membrane permeability; 35° C., 22 hours
Method in brief: as §1

[3] = test system: Escherichia coli ATCC 25922; assay: Minimum inhibitory concentration, broth micro-dilution (CLSI), E. coli; assay type: cell-based; settings: Escherichia coli, ATCC25922, 22 h, 35° C., 22 hours
[4] = biological target: T1, SpsB (Staphylococcus aureus signal peptidase) (Staphylococcus aureus, UniProt P0A070); assay: cell-based; assay type: biochemical; settings: SpsB IC50, whole-cell S. aureus (USA300 background, overexpressing SpsB) as SpsB source; fluorogenic peptide substrate, kinetic read 30 min
T1 construct: This assay uses a suspension of Staphylococcus aureus cells as a source of SpsB instead of recombinant SpsB protein; endogenous in cells; host or cells: S. aureus, USA300 background, overexpressing SpsB (whole-cell suspension from frozen pellets)
T1 sequence (P0A070 whole entry): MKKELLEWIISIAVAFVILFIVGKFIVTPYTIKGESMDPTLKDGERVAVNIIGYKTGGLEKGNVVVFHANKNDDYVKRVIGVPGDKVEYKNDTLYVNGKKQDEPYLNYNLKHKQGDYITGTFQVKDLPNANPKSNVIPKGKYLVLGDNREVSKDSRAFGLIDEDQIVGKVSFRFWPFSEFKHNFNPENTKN
Method in brief: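 Whole S. aureus cells (USA300, overexpressing SpsB) in PBS with MgCl2, CaCl2 and 0.1% Tween-80 served as enzyme source, mixed with 20 μM stock of (Dabcyl)βAla-KPAKAAE(Edans) substrate before use. Fluorescence (ex 340/em 490 nm) read kinetically over 30 min. IC50 from reaction rate versus 11-point inhibitor concentration.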

[5] = MRSA USA 300 NRS384, read-out: MIC (μg/mL) S. aureus
[6] = E. coli ATCC 25922, read-out: MIC (μg/mL) E. coli
[7] = read-out: MIC (μg/mL) S. aureus, MRSA USA 300 NRS384
[8] = read-out: MIC (μg/mL) E. coli, E. coli ATCC 25922

| SMILES | MIC [1, 5] [µg/mL] | MIC [2] [µg/mL] | MIC [3, 6] [µg/mL] | IC50 [4] [nM] | MIC [1, 7] [µg/mL] | MIC [3, 8] [µg/mL] |
| --- | --- | --- | --- | --- | --- | --- |
| CCCCCCCCc1ccc(C(=O)N[C@@H](CN)C(=O)N(C)[C@@H]2C(=O)N[C@@H](C)C(=O)N[C@H](C(=O)NCC#N)Cc3ccc(OCCN)c(c3)-c3cc2ccc3OCCN)cc1 [Compound 344] | 0.094 (≈ 0.112 µM) | 0.036 (≈ 0.0429 µM) | 0.38 (≈ 0.452 µM) | 1 |  |  |
| CCCCCCCCS(=O)(=O)N[C@@H](CO)C(=O)N(C)[C@@H]1C(=O)N[C@@H](C)C(=O)N[C@H](C(=O)NCC#N)Cc2ccc(OCCN)c(c2)-c2cc1ccc2OCCN [Compound 345] |  | 2 (≈ 2.5 µM) |  | 2.2 | 0.5 (≈ 0.624 µM) | > 64 |
| CCCCCCCCCCS(=O)(=O)N[C@@H](CCN)C(=O)N(C)[C@@H]1C(=O)N[C@@H](C)C(=O)N[C@H](C(=O)NCC#N)Cc2ccc(OCCN)c(c2)-c2cc1ccc2OCCN [Compound 346] | 0.031 (≈ 0.0368 µM) | 0.063 (≈ 0.0748 µM) | 8 (≈ 9.5 µM) | 0.7 |  |  |
| CCCCCCCCCCNCCS(=O)(=O)N[C@@H](CCO)C(=O)N(C)[C@@H]1C(=O)N[C@@H](C)C(=O)N[C@H](C(=O)NCC#N)Cc2ccc(OCCN)c(c2)-c2cc1ccc2OCCN [Compound 348] |  | 1 (≈ 1.13 µM) |  | 0.8 | 0.055 (≈ 0.0621 µM) | > 64 |
| CCCCCCCCCCNCCS(=O)(=O)N[C@@H](CCN)C(=O)N(C)[C@@H]1C(=O)N[C@@H](C)C(=O)N[C@H](C(=O)NCC#N)Cc2ccc(OCCN)c(c2)-c2cc1ccc2OCCN [Compound 350] | 0.016 (≈ 0.0181 µM) | 0.063 (≈ 0.0712 µM) | 4 (≈ 4.52 µM) | 1 |  |  |
| CCCCCCCCCC(=O)N[C@H](CCC)C(=O)N[C@@H](CCN)C(=O)N(C)[C@@H]1C(=O)N[C@@H](C)C(=O)N[C@H](C(=O)NCC#N)Cc2ccc(OCCN)c(c2)-c2cc1ccc2OCCN [Compound 353] |  | 0.016 (≈ 0.018 µM) |  | 0.82 | 0.047 (≈ 0.0527 µM) | 2 (≈ 2.24 µM) |
| CCCCc1ccc(C(=O)N[C@H](CCC)C(=O)N[C@@H](CCN)C(=O)N(C)[C@@H]2C(=O)N[C@@H](C)C(=O)N[C@H](C(=O)NCC#N)Cc3ccc(OCCN)c(c3)-c3cc2ccc3OCCN)c(C)c1 [Compound 354] |  | 0.063 (≈ 0.0691 µM) |  | 1.8 | 0.25 (≈ 0.274 µM) | 8 (≈ 8.78 µM) |
| CCCCc1ccc(C(=O)N[C@@H](CCC)C(=O)N[C@@H](CCN)C(=O)N(C)[C@@H]2C(=O)N[C@@H](C)C(=O)N[C@H](C(=O)NCC#N)Cc3ccc(OCCN)c(c3)-c3cc2ccc3OCCN)c(C)c1 [Compound 355] |  | 0.031 (≈ 0.034 µM) |  | 1.1 | 0.13 (≈ 0.143 µM) | 4 (≈ 4.39 µM) |
| CCCCCCCCCC(=O)N[C@@H](CO)C(=O)N[C@@H](CCN)C(=O)N(C)[C@@H]1C(=O)N[C@@H](C)C(=O)N[C@H](C(=O)NCC#N)Cc2ccc(OCCN)c(c2)-c2cc1ccc2OCCN [Compound 360] |  | 0.31 (≈ 0.353 µM) |  | 1.2 | 0.22 (≈ 0.25 µM) | 24 (≈ 27.3 µM) |
| CCCCCCCCCC(=O)N[C@H](C)C(=O)NCC(=O)N[C@@H](CCN)C(=O)N(C)[C@@H]1C(=O)N[C@@H](C)C(=O)N[C@H](C(=O)NCC#N)Cc2ccc(OCCN)c(c2)-c2cc1ccc2OCCN [Compound 366] |  | 0.38 (≈ 0.413 µM) |  | 0.64 | 0.25 (≈ 0.272 µM) | 48 (≈ 52.2 µM) |
| CCCCCCCCCC(=O)NCCC(=O)N[C@@H](CCN)C(=O)N(C)[C@@H]1C(=O)N[C@@H](C)C(=O)N[C@H](C(=O)NCC#N)Cc2ccc(OCCN)c(c2)-c2cc1ccc2OCCN [Compound 367] | 0.094 (≈ 0.109 µM) | 0.13 (≈ 0.151 µM) | 12 (≈ 13.9 µM) | 0.88 |  |  |
| CCCCCCCCCNC(=O)CCC(=O)N[C@@H](CCN)C(=O)N(C)[C@@H]1C(=O)N[C@@H](C)C(=O)N[C@H](C(=O)NCC#N)Cc2ccc(OCCN)c(c2)-c2cc1ccc2OCCN [Compound 369] | 0.063 (≈ 0.073 µM) | 0.063 (≈ 0.073 µM) | 4 (≈ 4.63 µM) | 0.47 |  |  |
| CCCCc1ccc(C(=O)NCC(=O)N[C@@H](CCN)C(=O)N(C)[C@@H]2C(=O)N[C@@H](C)C(=O)N[C@H](C(=O)NCC#N)Cc3ccc(OCCN)c(c3)-c3cc2ccc3OCCN)c(C)c1 [Compound 370] |  | 0.13 (≈ 0.15 µM) |  | 1.1 | 0.19 (≈ 0.219 µM) | 16 (≈ 18.4 µM) |
| CCCCc1ccc(C(=O)NCC(=O)NCC(=O)N[C@@H](CCN)C(=O)N(C)[C@@H]2C(=O)N[C@@H](C)C(=O)N[C@H](C(=O)NCC#N)Cc3ccc(OCCN)c(c3)-c3cc2ccc3OCCN)c(C)c1 [Compound 371] |  | 0.5 (≈ 0.54 µM) |  | 1.3 | 0.25 (≈ 0.27 µM) | 32 (≈ 34.6 µM) |
